“Also recorded” adds a separate entry of the source.

Data on three compounds can be found in patent US8168220B2, “Dosage forms of active ingredients containing hydroxystilbene for treating menopausal complaints” (priority 2005, dated 2012).

For data set [1], the target named is T1, estrogen receptor β (ERβ) (Homo sapiens, UniProt Q92731).
T1 construct: expressed in transfected cells; host or cells: HEC-1B cells (human endometrial adenocarcinoma; no endogenous ERα or ERβ), transient transfection with DOTAP
The data set is described as follows: ERβ/mC3-luciferase transactivation in HEC-1B cells. It counts as cell-based. The conditions noted are these: 24 hours incubation, FIG. 5. The text has this: They therefore represent a possible way of investigating, in a human and endometrial context, ligand-dependent effects of substances on the transactivation mechanisms in relation to different receptor subtypes and different estrogen-responsive promoters.
An established ERβ/mC3-luciferase system was employed. For this purpose, HEC-1B cells were applied in 24-well plates with a density of 95 000 cells/well (in Dulbecco's modified Essential Medium (DMEM/F12)). The next day, they were cotransfected with an ERβ-containing construct (hERβ/pSG2) and a triple-ERE-containing promoter/luciferase construct (mC3-Luc/pGL2) (Hillisch et al. Dissecting physiological roles of estrogen receptor alpha and beta with potent selective ligands from structure-based design. Mol Endocrinol. 2004 July; 18:1599-609). The transient transfection took place using DOTAP (N-[1-(2,3-dioleoyloxy)]-N,N,N-trimethylammoniumpropane methyl-sulfate, Roth) as described by the manufacturer.
After 24 hours, the cells were treated with appropriate concentrations of the substances or substance mixtures to be investigated. […] The incubation time was 24 hours. The cells were then lysed. The Luciferase Assay® kit (Promega) was used to determine the luciferase activity on the one hand, and the BCA® kit (Sigma) was used to determine the protein content on the other hand. […]

Data set [2] in a line: Dissolving tests with ERr 731 in ethanol and glycerol. It counts as physicochemical. The procedure:
a) Dissolving Tests with ERr 731® in Ethanol and Glycerol:
Test A: 200 mg of dry extract in 50 ml of glycerol R:
Test B: 200 mg of dry extract in 50 ml of ethanol 30% R:
Test C: 200 mg of dry extract in 50 ml of ethanol 50% R:
Test D: 200 mg of dry extract in 50 ml of ethanol 86% R: […]

A short description of data set [3]: Pharmacokinetics of ERr 731 ingredients in a subject (plasma LC-MS/MS). Format: in vivo, human. The note with it: 40 mg ERr 731 orally (10 tablets). The procedure: Subsequently, 10 ml of blood was taken at various times (as indicated in FIG. 1) and the plasma was obtained by centrifugation.
These plasma samples were processed as follows: 500 μl of plasma were mixed with 25 μl of an internal standard working solution (2.5 ng/μl rhaponticin or rhapontigenin in methanol) and then mixed with 500 μl of isotonic NaCl solution and 2.5 ml of diethyl ether/butanol (9/1; v/v). After shaking and centrifugation (10 minutes at 4600 rpm), about 2 ml of the supernatant were removed and dried under a stream of nitrogen (at 60° C.). The pellet was taken up in 50 μl of methanol. Addition of 200 μl of distilled water was followed by renewed mixing, and 200 μl were pipetted into autosampler tubes (light-protected). 30 μl of the samples were injected for analysis into an LC-MS/MS system (PE Sciex API 3000). Chromatographic separation of the analytes took place on a Phenomenex Polymer X column with a gradient of an ammonium buffer solution and an acetonitrile/methanol mixture as mobile phase.

Data set [4] is described as follows: pH-dependent solubility of rhaponticin in aqueous solutions. It counts as physicochemical. The note with it: acidic pH range (pH 3.4-3.6). The text has this: Use is made of this for its isolation. Since, besides other organic acids, the root in particular has a high content of oxalic acid (⅔ in water-soluble and ⅓ in bound form), this must be neutralized during the isolation in order to prevent the pH drifting into the acidic range and thus to inhibit premature precipitation of the rhaponticin. This is achieved by using calcium oxide. The latter is employed as quicklime solution with a pH of 12.4-12.6.

[5] abbreviates: Test A: 200 mg of dry extract in 50 ml of glycerol R.
The mark [6] stands for this setting: Test B: 200 mg of dry extract in 50 ml of ethanol 30% R.
[7] abbreviates: Test C: 200 mg of dry extract in 50 ml of ethanol 50% R.
Where [8] appears, read: Test D: 200 mg of dry extract in 50 ml of ethanol 86% R.

T1 sequence (Q92731 whole entry): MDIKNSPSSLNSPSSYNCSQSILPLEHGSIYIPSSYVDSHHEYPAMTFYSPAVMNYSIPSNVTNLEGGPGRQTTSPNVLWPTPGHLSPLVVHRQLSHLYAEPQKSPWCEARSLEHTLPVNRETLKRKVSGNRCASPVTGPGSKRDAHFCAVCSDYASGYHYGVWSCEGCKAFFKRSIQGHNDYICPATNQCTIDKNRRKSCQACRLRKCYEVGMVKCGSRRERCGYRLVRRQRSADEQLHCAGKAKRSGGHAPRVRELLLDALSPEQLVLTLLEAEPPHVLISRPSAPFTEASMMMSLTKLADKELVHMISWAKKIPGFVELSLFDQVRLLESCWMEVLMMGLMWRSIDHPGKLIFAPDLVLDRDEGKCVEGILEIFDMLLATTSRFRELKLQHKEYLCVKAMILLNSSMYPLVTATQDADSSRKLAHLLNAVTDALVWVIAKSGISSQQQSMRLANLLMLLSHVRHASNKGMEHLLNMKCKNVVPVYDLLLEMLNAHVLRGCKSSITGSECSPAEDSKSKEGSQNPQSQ

As to `COc1ccc(C=Cc2cccc(O)c2)cc1O` [deoxyrhapontigenin, 3′,5-Dihydroxy-4′-methoxystilbene], the “activation of ERβ (relative luciferase activity vs DMSO control)” value in data set [1] was “activate the ERβ dose-dependently; also recorded: effective only at higher concentrations”.
As to `COc1ccc(C=Cc2cc(O)cc(O[C@@H]3O[C@H](CO)[C@@H](O)[C@H](O)[C@H]3O)c2)cc1` [deoxyrhaponticin], the content dissolved in data set [2] (setting [5]) stood at 27.1% deoxyrhaponticin; in data set [2] (setting [6]), 25.2% deoxyrhaponticin; in data set [2] (setting [7]), 29.0% deoxyrhaponticin; in data set [2] (setting [8]), 29.5% deoxyrhaponticin. The “content dissolved relative to theory” value in data set [2] (setting [5]) was “(90.6% of theory)”; in data set [2] (setting [6]), “(84.2% of theory)”; in data set [2] (setting [7]), “(97.0% of theory)”; in data set [2] (setting [8]) it was “(98.7% of theory)”.
Take `COc1ccc(C=Cc2cc(O)cc(O[C@@H]3O[C@H](CO)[C@@H](O)[C@H](O)[C@H]3O)c2)cc1O` [rhaponticin, 3,3′,5-Trihydroxy-4′-methoxystilbene 3-O-β-D-glucopyranoside]: the “detection in the blood” value in data set [3] is on record as “detected in the blood”. In addition, the “time of maximum in the blood” value in data set [3] is 3 to 4 h. Besides, the “solubility in aqueous solutions” value in data set [4] is “precipitated as yellowish substance”. Moreover, the content dissolved is reported as 55.1% rhaponticin in data set [2] (setting [5]), 52.2% rhaponticin in data set [2] (setting [6]), 58.8% rhaponticin in data set [2] (setting [7]) and 59.8% rhaponticin in data set [2] (setting [8]). The “content dissolved relative to theory” value in data set [2] (setting [5]) is “(89.0% of theory)”; in data set [2] (setting [6]), “(84.3% of theory)”; in data set [2] (setting [7]) it was “(95.0% of theory)”; in data set [2] (setting [8]) it was “(96.6% of theory)”.
